Literature values, collected in patent US6635757B1, “Process for preparing cyclodextrin inclusion complex” (Vittal Mallya Scientific Research Foundation, priority 2001, dated 2003).

Assays:
[1] = tested on: insects

Structure (SMILES) | Activity compared with NSKE (containing azadirachtin-A<70%) ([1]; azadirachtin-A of 99% purity) | Sensitivity to sunlight | Physiological concentration required to elicit growth retardation ([1]; varies from species to species)
C/C=C(\C)C(=O)O[C@H]1C[C@@H](OC(C)=O)[C@@]2(C(=O)OC)CO[C@H]3[C@@H](O)[C@@](C)([C@]45O[C@@]4(C)[C@@H]4C[C@H]5O[C@@H]5OC=C[C@@]54O)[C@H]4[C@]1(CO[C@]4(O)C(=O)OC)[C@@H]32 [Azadirachtin-A] | not as active as NSKE |  | 
C/C=C(\C)C(=O)O[C@H]1C[C@@H](OC(C)=O)[C@@]2(C(=O)OC)CO[C@H]3[C@@H](O)[C@@](C)([C@]45O[C@@]4(C)[C@H]4C[C@@H]5O[C@@H]5OC=C[C@@]54O)[C@H]4[C@]1(CO[C@]4(O)C(=O)OC)[C@@H]32 [Azadirachtin] |  | extremely sensitive | 1-100 ppm
